The values that follow come from patent publication US20250011300A1, “PIPERAZINYLSULFONYLARYL COMPOUNDS FOR TREATMENT OF BACTERIAL INFECTIONS” (Hoffmann-La Roche Inc., priority 2021, published 2025).

≈ marks a conversion by molar mass, not a printed value.

Assay [1] has as its target Escherichia coli LpxH (UDP-2,3-diacylglucosamine hydrolase) (Escherichia coli (strain K12), UniProt P43341). Put plainly: 50% Inhibitory Concentration (IC50) to LpxH, UMP/CMP-Glo Glycosyltransferase Assay kit. It is filed as biochemical. How it is done: Example 121: 50% Inhibitory Concentration (IC50) to UDP-2,3-diacylglucosamine hydrolase (LpxH)
The inhibitory potency of molecules to UDP-2,3-diacylglucosamine hydrolase (LpxH) was determined using the UMP/CMP-Glo™ Glycosyltransferase Assay kit. LpxH hydrolyzes the pyrophosphate bond of UDP-2,3-diacylglucosamine (UDP-DAG) to yield 2,3-diacylglucosamine 1-phosphate (lipid X) and UMP. The assay kit could quantify the UMP production by convert the UMP to ATP and generate light in a luciferase reaction. The compound's effect on the LpxH activity is detected by measuring the light using a luminometer (Envision).

For assay [2], the system named is E. coli (ATCC 25922). In words: Minimal Inhibitory Concentration (MIC) assay, E. coli. The class given is cell-based. The settings on record: Escherichia coli, ATCC25922; E. coli ATCC 25922, CAMHB, 20 hours at 35° C.; read-out: MIC E. coli ATCC 25922. The method in brief: (§1)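 Broth microdilution in cation-adjusted Mueller Hinton broth, inoculum 5×10^5 CFU/mL, compounds 2-fold serially diluted from 10 mM DMSO stocks. Plates incubated 20 hours at 35° C in ambient air; MIC (μg/mL) is the lowest concentration preventing visible growth.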

Assay [3] has as its system K. pneumonia (ATCC 43816). Put plainly: Minimal Inhibitory Concentration (MIC) assay, K. pneumonia. The class given is cell-based. Particulars: Klebsiella pneumoniae; K. pneumoniae ATCC43816, CAMHB, 20 hours at 35° C.; read-out: MIC K. pneumoniae ATCC43816. The method in brief:
as §1

Escherichia coli LpxH (UDP-2,3-diacylglucosamine hydrolase), sequence (P43341 whole entry): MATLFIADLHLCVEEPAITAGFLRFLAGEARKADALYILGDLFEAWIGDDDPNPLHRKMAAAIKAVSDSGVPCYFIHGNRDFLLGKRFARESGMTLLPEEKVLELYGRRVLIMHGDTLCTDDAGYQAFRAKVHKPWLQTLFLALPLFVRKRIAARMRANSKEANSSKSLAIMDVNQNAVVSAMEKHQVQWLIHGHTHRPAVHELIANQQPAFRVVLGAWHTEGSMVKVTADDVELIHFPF

In assay [1], `O=C1CC(CNCC2CNC2)CN1c1ccc(S(=O)(=O)N2CCN(c3cc(C(F)(F)F)cc(Cl)n3)CC2)cc1` (stereo not drawn) [Example 38, 4-[(Azetidin-3-ylmethylamino)methyl]-1-[4-[4-[6-chloro-4-(trifluoromethyl)-2-pyridyl]piperazin-1-yl]sulfonylphenyl]pyrrolidin-2-one] gave an IC50 of 47.7 nM. For the same molecule, the MIC in assay [2] and in assay [3] was 5.09 µg/mL (≈ 8.67 µM) throughout.

On to `NC1(C2CN(CC3CC(=O)N(c4ccc(S(=O)(=O)N5CCN(c6cc(C(F)(F)F)cc(Cl)n6)CC5)cc4)C3)C2)CC1` (stereo not drawn) [Example 39, 4-[[3-(1-Aminocyclopropyl)azetidin-1-yl]methyl]-1-[4-[4-[6-chloro-4-(trifluoromethyl)-2-pyridyl]piperazin-1-yl]sulfonylphenyl]pyrrolidin-2-one], for which the IC50 in assay [1] was 13 nM. Besides, the MIC in assay [2] came to 0.96 µg/mL (≈ 1.57 µM); in assay [3], 1.92 µg/mL (≈ 3.13 µM).

In the case of `NC1CN(CC2CC(=O)N(c3ccc(S(=O)(=O)N4CCN(c5cc(C(F)(F)F)cc(Cl)n5)CC4)cc3)C2)C1` (stereo not drawn) [Example 40, 4-[(3-Aminoazetidin-1-yl)methyl]-1-[4-[4-[6-chloro-4-(trifluoromethyl)-2-pyridyl]piperazin-1-yl]sulfonylphenyl]pyrrolidin-2-one], the midpoint of inhibition in assay [1], the IC50, lay at 20.9 nM. Further, the MIC in assay [2] and in assay [3] was 1.79 µg/mL (≈ 3.12 µM) each time.

Take `O=C1CC(CN2CCNCC2)CN1c1ccc(S(=O)(=O)N2CCN(c3cc(C(F)(F)F)cc(Cl)n3)CC2)cc1` (stereo not drawn) [Example 41, 1-[4-[4-[6-Chloro-4-(trifluoromethyl)-2-pyridyl]piperazin-1-yl]sulfonylphenyl]-4-(piperazin-1-ylmethyl)pyrrolidin-2-one]: in assay [1], the IC50 is 10.2 nM. Moreover, the minimum inhibitory concentration (MIC) in assay [2] came to 1.27 µg/mL (≈ 2.16 µM); in assay [3], 2.55 µg/mL (≈ 4.34 µM).

In turn, `CN(C)C1CN(CC2CC(=O)N(c3ccc(S(=O)(=O)N4CCN(c5cc(C(F)(F)F)cc(Cl)n5)CC4)cc3)C2)C1` (stereo not drawn) [Example 42, 1-[4-[4-[6-Chloro-4-(trifluoromethyl)-2-pyridyl]piperazin-1-yl]sulfonylphenyl]-4-[[3-(dimethylamino)azetidin-1-yl]methyl]pyrrolidin-2-one] gave an IC50 in assay [1] of 15 nM. In addition, the MIC in assay [2] and in assay [3] was 10.4 µg/mL (≈ 17.2 µM) in each case.

Consider `CNC1CN(CC2CC(=O)N(c3ccc(S(=O)(=O)N4CCN(c5cc(C(F)(F)F)cc(Cl)n5)CC4)cc3)C2)C1` (stereo not drawn) [Example 43, 1-[4-[4-[6-Chloro-4-(trifluoromethyl)-2-pyridyl]piperazin-1-yl]sulfonylphenyl]-4-[[3-(methylamino)azetidin-1-yl]methyl]pyrrolidin-2-one], for which the IC50 in assay [1] was 15.3 nM. Further, the MIC was 3.82 µg/mL (≈ 6.51 µM) in assay [2] and 5.09 µg/mL (≈ 8.67 µM) in assay [3].

Turning to `CNC1CC(=O)N(c2ccc(S(=O)(=O)N3CCN(c4cc(C(F)(F)F)cc(Cl)n4)CC3)cc2)C1` (stereo not drawn) [Example 44, 1-[4-[4-[6-chloro-4-(trifluoromethyl)-2-pyridyl]piperazin-1-yl]sulfonylphenyl]-4-(methylamino)pyrrolidin-2-one], the IC50 in assay [1] was 197 nM. Besides, the MIC amounted to 1.73 µg/mL (≈ 3.34 µM) in assay [2] and 3.47 µg/mL (≈ 6.7 µM) in assay [3].

In the case of `NCCNC1CC(=O)N(c2ccc(S(=O)(=O)N3CCN(c4cc(C(F)(F)F)cc(Cl)n4)CC3)cc2)C1` (stereo not drawn) [Example 45, 4-(2-Aminoethylamino)-1-[4-[4-[6-chloro-4-(trifluoromethyl)-2-pyridyl]piperazin-1-yl]sulfonylphenyl]pyrrolidin-2-one], the IC50 in assay [1] is 45.7 nM. The MIC in assay [2] amounted to 3.65 µg/mL (≈ 6.67 µM); in assay [3], 7.29 µg/mL (≈ 13.3 µM).

Molecule `O=C1CC(NCCO)CN1c1ccc(S(=O)(=O)N2CCN(c3cc(C(F)(F)F)cc(Cl)n3)CC2)cc1` (stereo not drawn) [Example 46, 1-[4-[4-[6-Chloro-4-(trifluoromethyl)-2-pyridyl]piperazin-1-yl]sulfonylphenyl]-4-(2-hydroxyethylamino)pyrrolidin-2-one] showed an IC50 in assay [1] of 9.12 nM. Also, the MIC is 1.83 µg/mL (≈ 3.34 µM) in assay [2] and 3.65 µg/mL (≈ 6.66 µM) in assay [3].

The molecule `O=C1CC(N2C[C@@H](O)[C@@H](O)C2)CN1c1ccc(S(=O)(=O)N2CCN(c3cc(C(F)(F)F)cc(Cl)n3)CC2)cc1` (stereo partly drawn) [Example 48, 1-[4-[4-[6-Chloro-4-(trifluoromethyl)-2-pyridyl]piperazin-1-yl]sulfonylphenyl]-4-[(3S,4R)-3,4-dihydroxypyrrolidin-1-yl]pyrrolidin-2-one] had an IC50 in assay [1] of 6.78 nM. The MIC turned out to be 1.84 µg/mL (≈ 3.12 µM) in assay [2] and 3.69 µg/mL (≈ 6.25 µM) in assay [3].

`NCC1CN(C2CC(=O)N(c3ccc(S(=O)(=O)N4CCN(c5cc(C(F)(F)F)cc(Cl)n5)CC4)cc3)C2)C1` (stereo not drawn) [Example 49, 4-[3-(Aminomethyl)azetidin-1-yl]-1-[4-[4-[6-chloro-4-(trifluoromethyl)-2-pyridyl]piperazin-1-yl]sulfonylphenyl]pyrrolidin-2-one] showed an IC50 in assay [1] of 82 nM. The MIC in assay [2] amounted to 3.87 µg/mL (≈ 6.75 µM); in assay [3], 7.74 µg/mL (≈ 13.5 µM).

Turning to `NC1CN(C2CC(=O)N(c3ccc(S(=O)(=O)N4CCN(c5cc(C(F)(F)F)cc(Cl)n5)CC4)cc3)C2)C1` (stereo not drawn) [Example 51, 4-(3-Aminoazetidin-1-yl)-1-[4-[4-[6-chloro-4-(trifluoromethyl)-2-pyridyl]piperazin-1-yl]sulfonylphenyl]pyrrolidin-2-one], the IC50 in assay [1] was 53.7 nM. In addition, the MIC in assay [2] is 3.78 µg/mL (≈ 6.76 µM); in assay [3], 15.1 µg/mL (≈ 27.1 µM).

In turn, `O=C1CC(N2CC3(CNC3)C2)CN1c1ccc(S(=O)(=O)N2CCN(c3cc(C(F)(F)F)cc(Cl)n3)CC2)cc1` (stereo not drawn) [Example 52, 1-[4-[4-[6-Chloro-4-(trifluoromethyl)-2-pyridyl]piperazin-1-yl]sulfonylphenyl]-4-(2,6-diazaspiro[3.3]heptan-2-yl)pyrrolidin-2-one] gave a half-maximal inhibitory concentration (IC50) in assay [1] of 34.2 nM. Also, the MIC in assay [2] and in assay [3] was 17.5 µg/mL (≈ 29.9 µM) in each case.

Consider `O=C1CC(N2CCN[C@H](CO)C2)CN1c1ccc(S(=O)(=O)N2CCN(c3cc(C(F)(F)F)cc(Cl)n3)CC2)cc1` (stereo partly drawn) [Example 53, 1-[4-[4-[6-Chloro-4-(trifluoromethyl)-2-pyridyl]piperazin-1-yl]sulfonylphenyl]-4-[(3S)-3-(hydroxymethyl)piperazin-1-yl]pyrrolidin-2-one], for which the 50% inhibitory concentration (IC50) in assay [1] is 6.63 nM. Also, the MIC in assay [2] is 2 µg/mL (≈ 3.32 µM); in assay [3] it was 3 µg/mL (≈ 4.97 µM).

As for `O=C1CC(N2CCN[C@@H](CO)C2)CN1c1ccc(S(=O)(=O)N2CCN(c3cc(C(F)(F)F)cc(Cl)n3)CC2)cc1` (stereo partly drawn) [Example 54, 1-[4-[4-[6-Chloro-4-(trifluoromethyl)-2-pyridyl]piperazin-1-yl]sulfonylphenyl]-4-[(3R)-3-(hydroxymethyl)piperazin-1-yl]pyrrolidin-2-one], in assay [1], the IC50 was 19.9 nM. Also, the minimal inhibitory concentration (MIC) is 2 µg/mL (≈ 3.32 µM) in assay [2] and 4 µg/mL (≈ 6.63 µM) in assay [3].

Take `O=C1CC(N2C[C@@H]3C[C@H]2CN3)CN1c1ccc(S(=O)(=O)N2CCN(c3cc(C(F)(F)F)cc(Cl)n3)CC2)cc1` (stereo partly drawn) [Example 55, 1-[4-[4-[6-Chloro-4-(trifluoromethyl)-2-pyridyl]piperazin-1-yl]sulfonylphenyl]-4-[(1S,4S)-2,5-diazabicyclo[2.2.1]heptan-2-yl]pyrrolidin-2-one]: half-maximal inhibition in assay [1] (IC50) was put at 51.3 nM. In addition, the values for the MIC in assay [2] and in assay [3] were 3.88 µg/mL (≈ 6.63 µM) and 7.77 µg/mL (≈ 13.3 µM), respectively.

Take `N[C@@H]1CN(C2CC(=O)N(c3ccc(S(=O)(=O)N4CCN(c5cc(C(F)(F)F)cc(Cl)n5)CC4)cc3)C2)C[C@H]1O` (stereo partly drawn) [Example 56, 4-[(3R,4R)-3-amino-4-hydroxy-pyrrolidin-1-yl]-1-[4-[4-[6-chloro-4-(trifluoromethyl)-2-pyridyl]piperazin-1-yl]sulfonylphenyl]pyrrolidin-2-one]: in assay [1], the half-inhibitory concentration (IC50) was 13.6 nM. The figures for the MIC in assay [2] and in assay [3] were 1.96 µg/mL (≈ 3.33 µM) and 3.91 µg/mL (≈ 6.64 µM), respectively.

For the molecule `N[C@@H]1CN(C2CC(=O)N(c3ccc(S(=O)(=O)N4CCN(c5cc(C(F)(F)F)cc(Cl)n5)CC4)cc3)C2)CC[C@H]1O` (stereo partly drawn) [Example 57, 4-((3R,4R)-3-amino-4-hydroxypiperidin-1-yl)-1-(4-((4-(6-chloro-4-(trifluoromethyl)pyridin-2-yl)piperazin-1-yl)sulfonyl)phenyl)pyrrolidin-2-one], the 50% inhibitory concentration (IC50) in assay [1] was 34.8 nM. Also, the MIC in assay [2] and in assay [3] was 2 µg/mL (≈ 3.32 µM) in each case.

The molecule `O=C1CC(NC2CNC2)CN1c1ccc(S(=O)(=O)N2CCN(c3cc(C(F)(F)F)cc(Cl)n3)CC2)cc1` (stereo not drawn) [Example 58, 4-(Azetidin-3-ylamino)-1-[4-[4-[6-chloro-4-(trifluoromethyl)-2-pyridyl]piperazin-1-yl]sulfonylphenyl]pyrrolidin-2-one] showed an IC50 in assay [1] of 28.6 nM. Besides, the MIC in assay [2] came to 7.44 µg/mL (≈ 13.3 µM); in assay [3], 14.9 µg/mL (≈ 26.6 µM).

The molecule `O=C1CC(NC2CCNC2)CN1c1ccc(S(=O)(=O)N2CCN(c3cc(C(F)(F)F)cc(Cl)n3)CC2)cc1` (stereo not drawn) [Example 59, 1-[4-[4-[6-Chloro-4-(trifluoromethyl)-2-pyridyl]piperazin-1-yl]sulfonylphenyl]-4-(pyrrolidin-3-ylamino)pyrrolidin-2-one] had an IC50 in assay [1] of 96 nM. Further, the results for the MIC in assay [2] and in assay [3] were 3.81 µg/mL (≈ 6.65 µM) and 7.62 µg/mL (≈ 13.3 µM), respectively.

In assay [1], `O=C1CC(NC2CCNCC2)CN1c1ccc(S(=O)(=O)N2CCN(c3cc(C(F)(F)F)cc(Cl)n3)CC2)cc1` (stereo not drawn) [Example 60, 1-[4-[4-[6-Chloro-4-(trifluoromethyl)-2-pyridyl]piperazin-1-yl]sulfonylphenyl]-4-(4-piperidylamino)pyrrolidin-2-one] showed an IC50 of 8.52 nM. The MIC in assay [2] worked out at 1.95 µg/mL (≈ 3.32 µM); in assay [3], 3.9 µg/mL (≈ 6.64 µM).

A word on the IC50: it is the concentration needed to halve the response being measured. What is called MIC is the lowest concentration found to suppress growth.
